*1 amine or outer side, *2 acyl side, *3 side chain or, on linkers, in order; H or OH if unused. Where a SMILES comes first, the peptide text is derived from it. Bridges are numbered along the chain shown (N, C = ends). [ ]: non-standard residue; d: D form. The star is where a group is joined. hMet = CSCCC[C@H](N)C(=O)O; Orn = NCCC[C@H](N)C(=O)O; Dab = NCC[C@H](N)C(=O)O; X1 = O=C(C[*:2])[*:1]; For = O=C*
Columns and labels:
proteinase K = proteinase K (Parengyodontium album, UniProt P06873); assay: Protease resistance of peptides against proteinase K, analysed by MALDI-MS; format: in vitro ADME; conditions: 5 μg/ml proteinase K, 37° C., 1 hour
Method: Translationally synthesized peptides and purchased Urotensin II peptides were reacted in 5 μg/ml of a proteinase K solution at 37° C. for 1 hour in the presence of, or in the absence of, 1 mM DTT.

Urotensin II receptor = target: T1, Urotensin II receptor (Homo sapiens, UniProt Q9UKP6); assay: Calcium mobilization measurement in HEK-UTR cells (Fluo-4-AM fluorescence); format: cell-based; conditions: HEK-UTR cells (HEK cells expressing an Urotensin II receptor)
T1 construct: expressed in transfected cells; host or cells: HEK cells (HEK-UTR)
T1 sequence (Q9UKP6 1-389): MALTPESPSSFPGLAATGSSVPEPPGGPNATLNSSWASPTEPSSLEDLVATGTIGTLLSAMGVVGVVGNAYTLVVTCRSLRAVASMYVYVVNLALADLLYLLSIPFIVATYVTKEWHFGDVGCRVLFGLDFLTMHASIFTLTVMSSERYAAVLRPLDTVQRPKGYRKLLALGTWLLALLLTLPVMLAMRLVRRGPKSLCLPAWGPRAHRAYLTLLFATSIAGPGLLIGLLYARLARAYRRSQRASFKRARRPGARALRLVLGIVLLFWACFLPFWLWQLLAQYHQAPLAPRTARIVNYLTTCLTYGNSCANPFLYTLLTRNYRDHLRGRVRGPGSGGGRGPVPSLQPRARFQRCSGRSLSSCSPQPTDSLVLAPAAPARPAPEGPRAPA
Method: FIG. 10 illustrates calcium mobilization in cells by addition of peptides using a fluorescent reagent. 2×10^5 HEK-UTR cells (HEK cells expressing an Urotensin II receptor) were seeded into a 96 well plate. After 12-16 hours, the cells were incubated in 1 μM Fluo-4-AM (Dojindo Laboratories) for 1 hour. After the incubation was completed, the fluorescent reagent was removed, and 90 μL of an assay buffer (Hanks Balanced Salts Solution (HBSS), 10 mM HEPES, 200 μM of CaCl2, 0.1% BSA, and 2.5 mM probenecid) was added. Then, 10 μL of peptides dissolved in an assay buffer was added, and changes in an intensity of fluorescent light were measured by a microplate reader. The peptides were prepared by purifying the translation product by Zip-tip (Millipore) and distilling off the elute under reduced pressure.

proteinase K, sequence (P06873 106-384, species assumed): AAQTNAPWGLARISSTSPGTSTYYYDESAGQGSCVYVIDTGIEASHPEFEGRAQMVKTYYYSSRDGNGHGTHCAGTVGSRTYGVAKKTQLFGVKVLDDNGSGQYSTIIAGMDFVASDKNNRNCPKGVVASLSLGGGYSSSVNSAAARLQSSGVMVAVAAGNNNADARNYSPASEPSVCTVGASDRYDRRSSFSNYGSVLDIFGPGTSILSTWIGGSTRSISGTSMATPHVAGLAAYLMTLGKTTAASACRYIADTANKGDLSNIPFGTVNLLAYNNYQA

| SMILES | degradation by proteinase K (proteinase K) | degradation by proteinase K after change into linear form by DTT (proteinase K; in the presence of 1 mM DTT) | calcium mobilization in cells (change in fluorescence intensity) (Urotensin II receptor) |
| --- | --- | --- | --- |
| CC(C)[C@H](NC(=O)[C@@H]1CSSC[C@H](NC(=O)[C@H](CC(=O)O)NC(=O)[C@@H]2CCCN2C(=O)[C@@H](NC(=O)[C@@H](N)CCC(=O)O)[C@@H](C)O)C(=O)N[C@@H](Cc2ccccc2)C(=O)N[C@@H](Cc2c[nH]c3ccccc23)C(=O)N[C@@H](CCCCN)C(=O)N[C@@H](Cc2ccc(O)cc2)C(=O)N1)C(=O)O [Urotensin II] | not degraded | decomposed | – |
| CSCCC[C@H](NC=O)C(=O)N1CCC[C@H]1C(=O)N[C@@H](CC(=O)O)C(=O)N[C@H]1CCNC(=O)CSC[C@@H](C(=O)N[C@H](C(=O)O)C(C)C)NC(=O)[C@H](Cc2ccc(O)cc2)NC(=O)[C@H](CCCN)NC(=O)[C@H](Cc2c[nH]c3ccccc23)NC(=O)[C@H](Cc2ccccc2)NC1=O [YS9] (For-[hMet]PD[Dab]FW[Orn]YCV-OH; linker 4-9 via X1) | not degraded | – | calcium mobilization in the cells was observed |
| CSCC[C@H](NC=O)C(=O)N1CCC[C@H]1C(=O)N[C@@H](CC(=O)O)C(=O)N[C@@H](CC(C)C)C(=O)N[C@@H](Cc1ccccc1)C(=O)N[C@@H](Cc1c[nH]c2ccccc12)C(=O)N[C@@H](CCCCN)C(=O)N[C@@H](Cc1ccc(O)cc1)C(=O)N[C@@H](CS)C(=O)N[C@H](C(=O)O)C(C)C [YS10] (For-MPDLFWKYCV-OH; N-terminus and C-terminus assumed) | degraded | – | – |
